Data as given in patent US8399381B2, “Condensed heterocyclic sulfonyl urea compound, a herbicide containing the same, and a method for weed control using the same” (Sumitomo Chemical Company, Limited, priority 2002, dated 2013).

What was measured:
[1] = tested on: sulfonylurea herbicide-resistant Lindernia dubia subsp. major Pennell; assay: Paddy pot weeding test, flooded, two-leaf stage (Test Example 1); type: in vivo; conditions: 1 g/are, three weeks after treatment, resistant biotype, Kawanishi Town, Yamagata Pref.
Source text: (§1) A 5 cm×5 cm Jiffy Pot™ was charged with paddy soil, then water was introduced into each pot, seeds of sulfonylurea herbicide-sensitive Scirpus juncoides var. ohwianus, sulfonylurea herbicide-sensitive Lindernia procumbens (Krock.) Philcox, sulfonylurea herbicide-sensitive Lindernia dubia subsp. major Pennell, sulfonylurea herbicide-resistant Scirpus juncoides var. ohwianus, sulfonylurea herbicide-resistant Lindernia procumbens (Krock.) Philcox and sulfonylurea herbicide-resistant Lindernia dubia subsp. major Pennell were sowed therein and cultivated for a prescribed period under flooding conditions. When the plants reached the two-leave stage, the prescribed number of Jiffy Pots where the plants had been grown were transferred to a 150-cm^2 rectangular plastic pot, and water was introduced to a height of 3 cm, and a chemical diluent containing a compound was applied into the pot in an amount of 1 g/are. The chemical diluent was prepared by dissolving 1.5 g compound in 2 L of N,N-dimethylformamide (DMF) containing, 2% (W/V) surfactant Tween™ 20 and then diluting it with water to adjust the total volume to 10 L.

[2] = tested on: sulfonylurea herbicide-resistant Scirpus juncoides var. ohwianus; assay: as above; type: in vivo; conditions: 1 g/are, three weeks after treatment, resistant biotype, Iwamisawa City, Hokkaido
Source text: as §1

[3] = tested on: sulfonylurea herbicide-sensitive Lindernia dubia subsp. major Pennell; assay: as above; type: in vivo; conditions: 1 g/are, three weeks after treatment, sensitive biotype, Makabe Town, Ibaraki Pref.
Source text: as §1

[4] = tested on: sulfonylurea herbicide-sensitive Lindernia procumbens (Krock.) Philcox; assay: as above; type: in vivo; conditions: 1 g/are, three weeks after treatment, sensitive biotype, Kyoto Pref.
Source text: as §1

[5] = tested on: sulfonylurea herbicide-sensitive Scirpus juncoides var. ohwianus; assay: as above; type: in vivo; conditions: 1 g/are, three weeks after treatment, sensitive biotype, Kyoto Pref.
Source text: as §1

[6] = tested on: sulfonylurea herbicide-resistant Lindernia procumbens (Krock.) Philcox; assay: as above; type: in vivo; conditions: 1 g/are, three weeks after treatment, resistant biotype, Tajiri Town, Miyagi Pref.
Source text: as §1

SMILES	melting point	R Lindernia dubia subsp. major Pennell (effect index) [1]	R Scirpus juncoides var. ohwianus (effect index) [2]	S Lindernia dubia subsp. major Pennell (effect index) [3]	S Lindernia procumbens (Krock.) Philcox (effect index) [4]	S Scirpus juncoides var. ohwianus (effect index) [5]	R Lindernia procumbens (Krock.) Philcox (effect index) [6]
CCc1nc2ccc(C)nn2c1NC(=O)NS(=O)(=O)c1nc(OC)cc(OC)n1 [Compound No. 1]	182 to 184 °C	–	–	–	–	–	–
CCc1nc2ccc(Cl)nn2c1NC(=O)NS(=O)(=O)c1nc(OC)cc(OC)n1 [Compound No. 2]	174 to 175 °C	–	–	–	–	–	–
CCOc1ccc2nc(CC)c(NC(=O)NS(=O)(=O)c3nc(OC)cc(OC)n3)n2n1 [Compound No. 5]	180 to 181 °C	–	–	–	–	–	–
CCc1nc2ccc(OC)nn2c1NC(=O)NS(=O)(=O)c1nc(OC)cc(OC)n1 [Compound No. 6]	118 to 123 °C (dec.)	–	–	–	–	–	–
CCOc1ccc2nc(C(F)(F)F)c(NC(=O)NS(=O)(=O)c3nc(OC)cc(OC)n3)n2n1 [Compound No. 10]	169 to 171 °C	–	–	–	–	–	–
CCSc1ccc2nc(C(F)(F)F)c(NC(=O)NS(=O)(=O)c3nc(OC)cc(OC)n3)n2n1 [Compound No. 11]	179 to 180 °C	5 (excellent 81 to 100)	5 (excellent 81 to 100)	5 (excellent 81 to 100)	5 (excellent 81 to 100)	5 (excellent 81 to 100)	–
CCCc1nc2ccc(SC)nn2c1S(=O)(=O)NC(=O)Nc1nc(OC)cc(OC)n1 [Compound No. 31]	–	4 (high 61 to 80)	5 (excellent 81 to 100)	5 (excellent 81 to 100)	5 (excellent 81 to 100)	5 (excellent 81 to 100)	–
CCCc1ccc2nc(C)c(S(=O)(=O)NC(=O)Nc3nc(OC)cc(OC)n3)n2n1 [Compound No. 36]	–	5 (excellent 81 to 100)	5 (excellent 81 to 100)	5 (excellent 81 to 100)	5 (excellent 81 to 100)	5 (excellent 81 to 100)	5 (excellent 81 to 100)
CCCc1ccc2nc(Cl)c(S(=O)(=O)NC(=O)Nc3nc(OC)cc(OC)n3)n2n1 [Compound No. 38, 1-(2-chloro-6-n-propylimidazo[1,2-b]pyridazin-3-ylsulfonyl)-3-(4,6-dimethoxypyrimidin-2-yl)urea]	–	5 (excellent 81 to 100)	5 (excellent 81 to 100)	5 (excellent 81 to 100)	5 (excellent 81 to 100)	5 (excellent 81 to 100)	5 (excellent 81 to 100)
COc1cc(OC)nc(NC(=O)NS(=O)(=O)c2c(C)nc3ccc(C(C)C)nn23)n1 [Compound No. 39]	–	5 (excellent 81 to 100)	5 (excellent 81 to 100)	5 (excellent 81 to 100)	5 (excellent 81 to 100)	5 (excellent 81 to 100)	5 (excellent 81 to 100)
COc1cc(OC)nc(NC(=O)NS(=O)(=O)c2c(Cl)nc3ccc(C(C)C)nn23)n1 [Compound No. 40]	–	5 (excellent 81 to 100)	5 (excellent 81 to 100)	5 (excellent 81 to 100)	5 (excellent 81 to 100)	5 (excellent 81 to 100)	5 (excellent 81 to 100)
CCCCc1ccc2nc(Cl)c(S(=O)(=O)NC(=O)Nc3nc(OC)cc(OC)n3)n2n1 [Compound No. 41]	–	5 (excellent 81 to 100)	5 (excellent 81 to 100)	5 (excellent 81 to 100)	5 (excellent 81 to 100)	5 (excellent 81 to 100)	4 (high 61 to 80)
C=Cc1ccc2nc(Cl)c(S(=O)(=O)NC(=O)Nc3nc(OC)cc(OC)n3)n2n1 [Compound No. 43]	–	5 (excellent 81 to 100)	4 (high 61 to 80)	5 (excellent 81 to 100)	5 (excellent 81 to 100)	5 (excellent 81 to 100)	–
COc1cc(OC)nc(NC(=O)NS(=O)(=O)c2c(Cl)nc3ccc(C4CC4)nn23)n1 [Compound No. 44]	–	5 (excellent 81 to 100)	4 (high 61 to 80)	5 (excellent 81 to 100)	5 (excellent 81 to 100)	5 (excellent 81 to 100)	–
C/C=C/c1ccc2nc(Cl)c(S(=O)(=O)NC(=O)Nc3nc(OC)cc(OC)n3)n2n1 [Compound No. 45]	–	5 (excellent 81 to 100)	4 (high 61 to 80)	5 (excellent 81 to 100)	5 (excellent 81 to 100)	5 (excellent 81 to 100)	–
CCCc1ccc2nc(F)c(S(=O)(=O)NC(=O)Nc3nc(OC)cc(OC)n3)n2n1 [Compound No. 46]	–	5 (excellent 81 to 100)	5 (excellent 81 to 100)	5 (excellent 81 to 100)	5 (excellent 81 to 100)	5 (excellent 81 to 100)	–
COc1cc(OC)nc(NC(=O)NS(=O)(=O)c2c(C)nc3cccnn23)n1 [comparison 1, reference compound]	–	1 (very slight 1 to 20)	2 (slight 21 to 40)	5 (excellent 81 to 100)	5 (excellent 81 to 100)	5 (excellent 81 to 100)	0 (none 0)
CCOc1ccn2nc(C)c(NC(=O)NS(=O)(=O)c3nc(OC)cc(OC)n3)c2n1 [compound 34]	–	5 (excellent 81 to 100)	4 (high 61 to 80)	–	5 (excellent 81 to 100)	4 (high 61 to 80)	–

Continued, in another order:

melting point	SMILES	R Lindernia dubia subsp. major Pennell (effect index) [1]	R Scirpus juncoides var. ohwianus (effect index) [2]	S Lindernia dubia subsp. major Pennell (effect index) [3]	S Lindernia procumbens (Krock.) Philcox (effect index) [4]	S Scirpus juncoides var. ohwianus (effect index) [5]	R Lindernia procumbens (Krock.) Philcox (effect index) [6]
266 to 268 °C (dec.)	COc1cc(OC)nc(S(=O)(=O)NC(=O)Nc2c(C)nc3c(C)cc(N(C)C)nn23)n1 [Compound No. 15]	–	–	–	–	–	–
241 °C	COc1cc(OC)nc(S(=O)(=O)NC(=O)Nc2c(C)nc3ccc(OC)nn23)n1 [Compound No. 17]	–	–	–	–	–	–
191 to 193 °C (dec.)	COc1cc(OC)nc(S(=O)(=O)NC(=O)Nc2c(C)nc3c(C)cc(SC)nn23)n1 [Compound No. 20]	–	–	–	–	–	–
246 to 248 °C (dec.)	COc1cc(OC)nc(S(=O)(=O)NC(=O)Nc2c(C)nc3ccc(S(C)(=O)=O)nn23)n1 [Compound No. 21]	–	–	–	–	–	–
193 to 195 °C	COc1cc(OC)nc(S(=O)(=O)NC(=O)Nc2c(Cl)nc3ccc(N(C)C)nn23)n1 [Compound No. 22]	–	–	–	–	–	–
168 to 169 °C	CCOc1ccc2nc(Cl)c(NC(=O)NS(=O)(=O)c3nc(OC)cc(OC)n3)n2n1 [Compound No. 23]	4 (high 61 to 80)	5 (excellent 81 to 100)	5 (excellent 81 to 100)	5 (excellent 81 to 100)	5 (excellent 81 to 100)	–
180 to 182 °C	CCSc1ccc2nc(Cl)c(NC(=O)NS(=O)(=O)c3nc(OC)cc(OC)n3)n2n1 [Compound No. 25]	4 (high 61 to 80)	5 (excellent 81 to 100)	5 (excellent 81 to 100)	5 (excellent 81 to 100)	5 (excellent 81 to 100)	–
172 to 174 °C	COc1cc(C)nc(S(=O)(=O)NC(=O)Nc2c(Cl)nc3ccc(SC)nn23)n1 [Compound No. 27]	–	–	–	–	–	–
